Measurements taken from patent US20100256179A1, “COMBINATION THERAPY FOR PAIN IN PAINFUL DIABETIC NEUROPATHY” (UCB PHARMA GMBH, priority 2004, published 2010).

What was measured:
[1] = tested on: formalin-induced flinching and licking response of the affected paw; assay: rat formalin paw test (late phase); assay type: in vivo
Description: Rats were given an intraplantar injection of 5% formalin (50 μl) into the posterior left paw. This treatment induces a recognizable flinching and licking response of the affected paw in control animals. The number of flinches was counted for 15 minutes, beginning 20 minutes after injection of formalin. The time spent licking the affected paw was also recorded.
Male Rj: Wistar (Han) rats, 10 per group, weighing 100-130 g at the beginning of the experiments were studied per group. The test was performed blind.

[2] = tested on: pain in subjects with diabetic distal sensory polyneuropathy; assay: Randomized, double-blind placebo controlled trial of lacosamide in painful diabetic neuropathy: efficacy; assay type: in vivo, human
Description: A randomized, double-blind placebo controlled trial to investigate safety and efficacy of lacosamide in painful diabetic neuropathy was conducted.
Baseline data were collected during the last week of a 4-week Run-In Phase to ensure subject eligibility. […] The highest attained dose was maintained for 4 weeks during the Maintenance Phase, after which subjects entered the Taper Phase and were tapered off of study medication for 1 week. The Taper Phase was followed by a 2-week Safety Follow-Up Phase.
Subjects were male or female, age 18 or older. Subjects had clinically diagnosed pain attributed to diabetic distal sensory polyneuropathy for 1-5 years and a diagnosis of diabetes mellitus (Type I or Type II). Subjects had at least moderate pain (mean pain intensity during the Baseline week ≧4 out of 10 on an 11-point Likert scale) which had been stable for 4 weeks prior to randomization. Furthermore, subjects had good or fair diabetic control (glycosylated hemoglobin (HbA1C) <10%), which was optimized (best effort to achieve best control) for at least three months prior to Visit 1. Test product, dose and mode of administration, batch number
After completion of screening assessments, subjects began a 4-week Run-In Phase. […] Following the titration scheme, their dosage was escalated by 100 mg in weekly increments to a maximum dose of 400 mg/day (provided tolerability was satisfactory).
If subjects reached total or sufficient pain relief with lower doses than 400 mg/day, after careful consideration by the investigator, they were allowed to stay on the attained dose level in the Maintenance Phase. If adverse events were intolerable during the Titration Phase or the first week of the Maintenance Phase (only for those subjects reaching the 400 mg/day level), subjects could be down-titrated, once, to the next lowest dose. Subjects were treated at 400 mg/day (or highest dose achieved) for 4 weeks in the Maintenance Phase.
The primary variable was the within-subject change in average daily pain score from the Baseline week to Maintenance Phase, using an 11-point Likert scale (0-10). […]

[3] = Trough and peak plasma concentrations of unchanged lacosamide in the trial; assay type: in vivo, human; settings: 400 mg/day, Maintenance Phase
[4] = Safety and tolerability of lacosamide in the trial; assay type: in vivo, human
Source text: Safety variables evaluated included adverse events, clinical laboratory assessments, electrocardiograms (ECGs), vital sign measurements, and physical and neurological examinations.

[5] = Example 2, lacosamide 20 mg/kg i.p.
[6] = Example 3, lacosamide 10 mg/kg i.p.
[7] = Example 3, lacosamide 20 mg/kg i.p.
[8] = Example 4, lacosamide 10 mg/kg i.p.
[9] = Example 5, lacosamide 10 mg/kg i.p.
[10] = Example 5, lacosamide 20 mg/kg i.p.
[11] = Example 5, lacosamide alone at 10 mg/kg
[12] = of 60 subjects in the lacosamide group

**Q.** What does the source list for `COC[C@@H](NC(C)=O)C(=O)NCc1ccccc1` [Lacosamide, (R)-2-acetamido-N-benzyl-3-methoxypropionamide]?
**A.** Licking time % change (a): compared with vehicle control [1, 5]: −34% (a); Licking time (seconds) mean ± SEM [1, 5]: 146.9 ± 23.8 s; No. of flinches % change (a): compared with vehicle control [1, 5]: −33% (a); No. of flinches mean ± SEM [1, 5]: 85.7 ± 14.3; decrease in number of flinches as compared with vehicle controls ([1]; Example 2, lacosamide alone at 20 mg/kg): 33%; decrease in time spent licking as compared with vehicle controls ([1]; Example 2, lacosamide alone at 20 mg/kg, p=0.0962): 34%; Licking time % change (a): compared with vehicle control [1, 6]: −28% (a); Licking time (seconds) mean ± SEM [1, 6]: 210.1 ± 22.7 s; No. of flinches % change (a): compared with vehicle control [1, 6]: +22% (a); No. of flinches mean ± SEM [1, 6]: 182.7 ± 25.9; Licking time % change (a): compared with vehicle control [1, 7]: −56% (a); Licking time (seconds) mean ± SEM [1, 7]: 128.2 ± 28.0 s; No. of flinches % change (a): compared with vehicle control [1, 7]: −35% (a); No. of flinches mean ± SEM [1, 7]: 97.2 ± 16.0; increase in number of flinches as compared with vehicle controls ([1]; Example 3, lacosamide alone at 10 mg/kg): 22%; decrease in time spent licking ([1]; Example 3, lacosamide alone at 10 mg/kg, p<0.05): 28%; decrease in time spent licking ([1]; Example 3, lacosamide alone at 20 mg/kg, p<0.001): 56%; decrease in number of flinches as compared with vehicle controls ([1]; Example 3, lacosamide alone at 20 mg/kg, p=0.0961): 35%; decrease in time spent licking ([1]; Example 4, lacosamide 10 mg/kg alone, p=0.0538): 30%; Licking time % change (a): compared with vehicle control [1, 8]: −30% (a); Licking time (seconds) mean ± SEM [1, 8]: 185.2 ± 31.7 s; No. of flinches % change (a): compared with vehicle control [1, 8]: +5% (a); No. of flinches mean ± SEM [1, 8]: 158.2 ± 15.6; Licking time % change (a): compared with vehicle control [1, 9]: −4% (a); Licking time (seconds) mean ± SEM [1, 9]: 168.5 ± 23.9 s; No. of flinches % change (a): compared with vehicle control [1, 9]: −31% (a); No. of flinches mean ± SEM [1, 9]: 113.9 ± 23.2; Licking time % change (a): compared with vehicle control [1, 10]: −52% (a); Licking time (seconds) mean ± SEM [1, 10]: 85.1 ± 19.1 s; No. of flinches % change (a): compared with vehicle control [1, 10]: −48% (a); No. of flinches mean ± SEM [1, 10]: 85.8 ± 14.4; decrease in number of flinches as compared with vehicle controls [1, 11]: 31%; effect on time spent licking [1, 11]: no clear effects; decrease in time spent licking ([1]; Example 5, lacosamide alone at 20 mg/kg, p<0.01): 52%; decrease in number of flinches as compared with vehicle controls ([1]; Example 5, lacosamide alone at 20 mg/kg, p<0.05): 48%; reduction in pain from Baseline to the Maintenance Phase (average daily pain score, 11-point Likert scale), LSMean ([2]; Full Analysis Set (LOCF), oral lacosamide titrated to max 400 mg/day): 3.11 point; proportion of subjects with a decrease of 2 or more points on the Likert pain scale ([2]; compared with the placebo group, all phases of the trial): larger proportion; CGIC and PGIC scores ([2]; end of Maintenance Phase (Visit 10), lacosamide and placebo): Statistically significant differences; difference in LSMean pain score between the two groups ([2]; lacosamide vs placebo, FAS (LOCF), p=0.0390): 0.9; mean plasma drug concentration, peak ([3]; Visit 9): 11400 ng/mL; mean plasma drug concentration, trough ([3]; Visit 9): 7700 ng/mL; mean plasma drug concentration, peak ([3]; Visit 10): 9100 ng/mL; mean plasma drug concentration, trough ([3]; Visit 10): 7900 ng/mL; HbA1C level, mean change ([4]; Baseline to Visit 8, lacosamide group): 0.1%; Body weight change during treatment ([4]; lacosamide group): -0.5 kg; subjects who withdrew from the trial due to an AE ([4]; lacosamide group): 5 subjects; subjects with a serious adverse event (SAE) ([4]; lacosamide treatment group, abnormal ECG judged unlikely related to study medication): one; mean duration of exposure to study medication ([4]; lacosamide treatment group, indicating high tolerability): 59.6 days; subjects reporting adverse events associated with the central and peripheral nervous system ([4]; of 60 lacosamide subjects): 38%; subjects who reported at least one treatment-emergent adverse event (TEAE), overall incidence rate [4, 12]: 87%; subjects who withdrew from the trial due to an AE [4, 12]: 8%; weight gain ([4]; trial conclusion): did not induce weight gain
